Data from PMC7181660, “A novel specific PERK activator reduces toxicity and extends survival in Huntington's disease models” (Scientific Reports, 2020).

Legend:
[1] = target: T1, PERK (EIF2AK3) (Homo sapiens, UniProt Q9NZJ5); experiment: In vitro HotSpot kinase assay on isolated PERK; format: biochemical; settings: HotSpot Kinase Assay
T1 construct: GST; purchased Life technologies, Carlsbad, CA; host or cells: insect cells
T1 sequence (Q9NZJ5 536-1116): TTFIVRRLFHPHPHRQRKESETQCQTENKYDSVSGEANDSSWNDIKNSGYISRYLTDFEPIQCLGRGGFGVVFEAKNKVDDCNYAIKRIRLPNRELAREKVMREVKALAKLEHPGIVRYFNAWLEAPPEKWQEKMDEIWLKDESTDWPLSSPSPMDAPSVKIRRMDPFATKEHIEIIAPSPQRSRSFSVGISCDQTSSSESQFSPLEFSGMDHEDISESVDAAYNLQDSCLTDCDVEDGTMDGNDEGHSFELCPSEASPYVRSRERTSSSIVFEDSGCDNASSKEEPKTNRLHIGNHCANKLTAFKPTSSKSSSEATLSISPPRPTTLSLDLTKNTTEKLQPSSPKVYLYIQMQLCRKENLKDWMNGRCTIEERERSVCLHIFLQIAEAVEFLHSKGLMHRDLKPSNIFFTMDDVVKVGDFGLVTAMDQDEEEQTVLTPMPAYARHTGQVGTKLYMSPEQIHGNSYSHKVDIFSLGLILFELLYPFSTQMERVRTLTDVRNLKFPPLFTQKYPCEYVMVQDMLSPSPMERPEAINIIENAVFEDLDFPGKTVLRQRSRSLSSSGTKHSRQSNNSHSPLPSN
Description: In vitro kinase assays with purified components and full kinase panel analysis was done at Reaction Biology Corp. (Malvern, PA, USA) using the HotSpot Kinase Assay. Reactions were performed for 20 min at room temp. using ^33P-ATP (Specific activity 10 μCi/μl) with 1 μM total ATP, 20 μM substrate and kinases in the nanomolar range in 20 mM Hepes (pH 7.5), 10 mM MgCl2, 1 mM EGTA, 0.02% Brij35, 0.02 mg/ml BSA, 0.1 mM Na3VO4, 2 mM DTT, 1% DMSO and other required factors depending on the assayed kinase.

[2] = system: STHdh^Q111/111 cells; experiment: Toxicity assay: rescue from tunicamycin (ER stress)-induced apoptosis, FACS with propidium iodide (sub-G0/G1); format: cell-based, murine
Description: (§1) STHdh^Q111/111 cells (used before[13]) or PERK+/+ or PERK−/− MEFs (kindly provided by David Ron, Univ. Cambridge) were incubated with Tun (10 μg/ml) for 48 h, which results in ER stress-induced cell death. Cells under the same conditions were incubated for the same times, together with Tun, with increasing concentrations of the different PERK modulators (0–120 μM) and the percent of apoptotic cells was measured by FACS cell cycle progression using propidium iodide (PI), considering the fraction beneath G0/G1. The relative apoptosis rate was calculated to be able to compare between compounds and experiments, where for each concentration curve the percent of apoptotic cells was considered 100 at concentration 0 of the PERK modulator, with only Tun. The graphs show the average relative apoptosis rate of at least 3 independent experiments for each compound.
(§2) Cells were washed with PBS and fixed with cold methanol. Before FACS analysis cells were washed with PBS, followed by addition of propidium iodide (PI) solution (10 μg/ml) and analysis by flow cytometry. Cells in sub-G0/G1 were counted as apoptotic/ dead.

[3] = system: PERK−/− MEF cells; experiment: Rescue from tunicamycin-induced apoptosis in PERK−/− MEFs; format: cell-based; settings: Tun
Description: as §1, §2

[4] = system: WT MEF cells; experiment: Rescue from tunicamycin-induced apoptosis in WT MEFs; format: cell-based; settings: WT MEFs treated with Tun; read-out: IC50 for inhibition of apoptosis
Description: as §1, §2

[5] = target: panel of 391 kinases (Homo sapiens, UniProt Q9BQI3); experiment: biochemical; format: biochemical; settings: kinase EIF2AK1; 10-dose IC50 mode; 1 µM ATP; read-out: Control Compound IC50
[6] = target: panel of 391 kinases (Homo sapiens, UniProt Q15120); experiment: biochemical; format: biochemical; settings: kinase PDK3/PDHK3; 10-dose IC50 mode; 1 µM ATP; read-out: Control Compound IC50
[7] = target: panel of 391 kinases (Homo sapiens, UniProt Q9NYL2); experiment: biochemical; format: biochemical; settings: ZAK/MLTK; ATP 1 µM; read-out: Control Compound IC50
[8] = target: panel of 391 kinases (Homo sapiens, UniProt Q15118); experiment: biochemical; format: biochemical; settings: kinase PDK1/PDHK1; 10-dose IC50 mode; 1 µM ATP; read-out: Control Compound IC50
[9] = target: panel of 391 kinases (Homo sapiens, UniProt Q16654); experiment: biochemical; format: biochemical; settings: kinase PDK4/PDKH4; 10-dose IC50 mode; 1 µM ATP; read-out: Control Compound IC50
[10] = target: panel of 391 kinases (Homo sapiens, UniProt Q15119); experiment: biochemical; format: biochemical; settings: kinase PDK2/PDHK2; 10-dose IC50 mode; 1 µM ATP; read-out: Control Compound IC50
[11] = target: panel of 391 kinases (Homo sapiens, UniProt P68400); experiment: biochemical; format: biochemical; settings: CK2a; ATP 1 µM; read-out: Control Compound IC50
[12] = target: T2, panel of 391 kinases (Homo sapiens, UniProt Q9NR20); experiment: biochemical; format: biochemical; settings: DYRK4; ATP 1 µM; read-out: Control Compound IC50
T2 sequence (Q9NR20 1-520): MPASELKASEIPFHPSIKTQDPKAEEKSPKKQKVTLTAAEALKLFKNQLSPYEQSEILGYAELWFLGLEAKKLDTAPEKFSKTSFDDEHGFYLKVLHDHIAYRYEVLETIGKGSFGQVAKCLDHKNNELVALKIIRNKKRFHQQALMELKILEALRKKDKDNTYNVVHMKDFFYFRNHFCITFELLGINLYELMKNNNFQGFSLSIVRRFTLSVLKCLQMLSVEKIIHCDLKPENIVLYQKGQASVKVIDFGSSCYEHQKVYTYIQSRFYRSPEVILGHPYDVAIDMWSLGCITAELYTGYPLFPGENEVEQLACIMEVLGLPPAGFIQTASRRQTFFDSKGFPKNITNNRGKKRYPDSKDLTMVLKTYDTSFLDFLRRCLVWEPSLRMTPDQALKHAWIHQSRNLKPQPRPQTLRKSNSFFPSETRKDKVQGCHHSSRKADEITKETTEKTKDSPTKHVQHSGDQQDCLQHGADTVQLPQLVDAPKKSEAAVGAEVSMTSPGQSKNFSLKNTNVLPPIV

[13] = target: panel of 391 kinases (Homo sapiens, UniProt Q9Y572); experiment: biochemical; format: biochemical; settings: RIPK3; ATP 1 µM; read-out: Control Compound IC50
[14] = target: T3, panel of 391 kinases (Homo sapiens, UniProt P10398); experiment: biochemical; format: biochemical; settings: ARAF; ATP 1 µM; read-out: Control Compound IC50
T3 sequence (P10398 1-606): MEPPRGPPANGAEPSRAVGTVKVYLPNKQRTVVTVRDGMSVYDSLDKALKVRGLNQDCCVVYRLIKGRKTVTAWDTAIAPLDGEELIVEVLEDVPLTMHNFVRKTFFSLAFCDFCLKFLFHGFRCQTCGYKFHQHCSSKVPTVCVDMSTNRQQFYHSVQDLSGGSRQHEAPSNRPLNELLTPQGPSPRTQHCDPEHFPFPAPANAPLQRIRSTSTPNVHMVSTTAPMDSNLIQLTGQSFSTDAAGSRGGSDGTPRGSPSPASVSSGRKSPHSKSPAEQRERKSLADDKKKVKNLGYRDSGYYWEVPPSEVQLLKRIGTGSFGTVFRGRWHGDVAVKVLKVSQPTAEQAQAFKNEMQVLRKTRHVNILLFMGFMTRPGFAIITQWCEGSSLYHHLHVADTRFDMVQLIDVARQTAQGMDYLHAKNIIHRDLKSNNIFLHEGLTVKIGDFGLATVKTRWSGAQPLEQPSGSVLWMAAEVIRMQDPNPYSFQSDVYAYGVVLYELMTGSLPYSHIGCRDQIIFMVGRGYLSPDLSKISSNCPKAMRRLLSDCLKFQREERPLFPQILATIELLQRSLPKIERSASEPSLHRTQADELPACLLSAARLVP

[15] = target: panel of 391 kinases (Homo sapiens, UniProt P37173); experiment: biochemical; format: biochemical; settings: TGFBR2; ATP 1 µM; read-out: Control Compound IC50

## COc1cc(/C=N\N(C)c2nc(-c3ccccc3)cc(-c3ccc(Br)cc3)n2)ccc1O [A4, reference compound]
[1]
  effect on activity of isolated PERK: activated PERK (EIF2AK3) in the nanomolar range, although to a small extent
[2]; 5 μM, 48 h Tun exposure
  reduction of apoptosis: no significant effect

## CCN(CC)CCC(=O)N1N=C(c2c(-c3ccccc3)c3cc(Br)ccc3[nH]c2=O)CC1c1ccc(Br)cc1 (stereo not shown) [CCT020312, reference compound]
[3]
  protection from ER stress-induced cell death: failed to protect
[2]; STHdh^Q111/111 cells treated with Tun, read-out: IC50 for inhibition of apoptosis
  IC50: 32.4 µM
[2]; below 10 μM, Tun
  protection from apoptosis at lower concentrations: failed to be protective
[4]
  IC50: 11.1 µM

## Cn1cc(-c2ccc3c(c2)CCN3C(=O)Cc2cccc(C(F)(F)F)c2)c2c(N)ncnc21 [GSK606414, 7-methyl-5-(1-{[3-(trifluoromethyl)phenyl]acetyl}-2,3-dihydro-1H-indol-5-yl)-7H-p yrrolo[2,3-d]pyrimidin-4-amine]
[1]
  effect on activity of isolated PERK: clear inhibitory effect

## Cn1cc(-c2ccc3c(c2)CCN3C(=O)Cc2cccc(C(F)(F)F)c2)c2c(N)ncnc21 [GSK-2606414]
[5]
  IC50: 166 nM

## O=C1Nc2ccc(I)cc2/C1=C/c1cc(Br)c(O)c(Br)c1 [GW5074]
[6]
  IC50: 1890 nM
[7]
  IC50: 1340 nM
[8]
  IC50: 10.3 µM
[9]
  IC50: 1680 nM
[10]
  IC50: 5.52 µM
[11]
  IC50: 35 nM
[12]
  IC50: 1140 nM
[13]
  IC50: 1140 nM
[14]
  IC50: 29.3 nM

## c1ccc2c(-c3cnn4cc(-c5ccc(N6CCNCC6)cc5)cnc34)ccnc2c1 [LDN193189]
[15]
  IC50: 89.6 nM

## COc1cc(/C=N\N(C)c2nc(-c3ccccc3)cc(-c3ccccc3)n2)cc(OC)c1 [MK26]
[2]; 0–100 μM, 48 h Tun exposure (Fig. 1C)
  rescue from ER stress-induced apoptosis: inactive
